Assay results taken from ChEMBL document CHEMBL1629570, “Posaconazole mono- or combination therapy for treatment of murine zygomycosis” (Antimicrob Agents Chemother, 2009).
Active and inactive are the calls of the source. The calls are words filed in the database; no cut-off is given here.

Legend:
Type in all cases: functional, organism-based
Rhizopus arrhizus [1] = assay: Antifungal activity against Rhizopus oryzae 99-880 infected in diabetic ketoacidotic BALB/c mouse assessed as improved time to death at 10 mg/kg/day, po administered 24 hrs post infection for 4 days
Rhizopus arrhizus [2] = assay: Antifungal activity against Rhizopus oryzae 99-880 infected in diabetic ketoacidotic BALB/c mouse assessed as improved time to death at 30 mg/kg/day, po administered 24 hrs post infection for 4 days
Rhizopus arrhizus [3] = assay: Antifungal activity against Rhizopus oryzae 99-880 infected in diabetic ketoacidotic BALB/c mouse assessed as improved time to death at 60 mg/kg/day, po administered 24 hrs post infection for 4 days
Rhizopus arrhizus [4] = assay: Antifungal activity against Rhizopus oryzae 99-880 infected in diabetic ketoacidotic mouse assessed as mouse survival at 10 mg/kg/day, po administered 24 hrs post infection for 4 days
Rhizopus arrhizus [5] = assay: Antifungal activity against Rhizopus oryzae 99-880 infected in diabetic ketoacidotic mouse assessed as mouse survival at 30 mg/kg/day, po administered 24 hrs post infection for 4 days
Rhizopus arrhizus [6] = assay: Antifungal activity against Rhizopus oryzae 99-880 infected in diabetic ketoacidotic mouse assessed as mouse survival at 60 mg/kg/day, po administered 24 hrs post infection for 4 days
Rhizopus arrhizus [7] = assay: Antifungal activity against Rhizopus oryzae 99-880 infected in diabetic ketoacidotic mouse assessed as reduction of fungal burden in kidneys at 60 mg/kg/day, po administered 8 hrs post infection for 3 days; settings: Kidney
Rhizopus arrhizus [8] = assay: Antifungal activity against Rhizopus oryzae 99-880 infected in diabetic ketoacidotic mouse assessed as reduction of fungal burden in brain at 60 mg/kg/day, po administered 8 hrs post infection for 3 days
Rhizopus arrhizus [9] = assay: Antifungal activity against Rhizopus oryzae 99-880 infected in neutropenic BALB/c mouse assessed as improved time to death at 60 mg/kg/day, po administered 24 hrs post infection for 4 days
Rhizopus arrhizus [10] = assay: Antifungal activity against Rhizopus oryzae 99-880 infected in neutropenic mouse assessed as reduction of fungal burden in kidneys at 60 mg/kg/day, po administered 8 hrs post infection for 3 days; settings: Kidney
Rhizopus arrhizus [11] = assay: Antifungal activity against Rhizopus oryzae 99-880 infected in neutropenic mouse assessed as reduction of fungal burden in brain at 60 mg/kg/day, po administered 8 hrs post infection for 3 days

Structure (SMILES): CC[C@@H]([C@H](C)O)n1ncn(-c2ccc(N3CCN(c4ccc(OC[C@@H]5CO[C@@](Cn6cncn6)(c6ccc(F)cc6F)C5)cc4)CC3)cc2)c1=O
- Activity (Rhizopus arrhizus [1]): inactive
- Activity (Rhizopus arrhizus [2]): inactive
- Activity (Rhizopus arrhizus [3]): Active
- Activity (Rhizopus arrhizus [4]): inactive
- Activity (Rhizopus arrhizus [5]): inactive
- Activity (Rhizopus arrhizus [6]): inactive
- Activity (Rhizopus arrhizus [7]): inactive
- Activity (Rhizopus arrhizus [8]): inactive
- Activity (Rhizopus arrhizus [9]): inactive
- Activity (Rhizopus arrhizus [10]): inactive
- Activity (Rhizopus arrhizus [11]): inactive
